Laboratory results from PubChem BioAssay (NCI).
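Briefly, cells in 96-well plates were exposed to five compound concentrations for 48 h, and endpoints were estimated by linear interpolation. GI50: concentration for 50% inhibition of growth. TGI denotes the concentration required for complete inhibition of growth.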

Key:
Test in all cases: NCI-60 cell line screen, 48 h
[1] = test system: NCI/ADR-RES ovarian
[2] = test system: HCT-116 colon
[3] = test system: IGROV1 ovarian
[4] = test system: NCI-H460 lung
[5] = test system: MOLT-4 leukemia
[6] = test system: MDA-MB-435
[7] = test system: LOX IMVI melanoma
[8] = test system: SF-295 CNS
[9] = test system: HL-60(TB) leukemia
[10] = test system: 786-0 renal
[11] = test system: U251 CNS
[12] = test system: UACC-62 melanoma
[13] = test system: TK-10 renal
[14] = test system: HOP-62 NSCLC
[15] = test system: OVCAR-4 ovarian
[16] = test system: UACC-257 melanoma
[17] = test system: RPMI-8226 leukemia
[18] = test system: COLO 205 colon
[19] = test system: UO-31 renal
[20] = test system: HT29 colon
[21] = test system: SK-MEL-2 melanoma
[22] = test system: KM12 colon
[23] = test system: OVCAR-8 ovarian
[24] = test system: HCT-15 colon
[25] = test system: T-47D breast
[26] = test system: PC-3 prostate
[27] = test system: SNB-19 CNS
[28] = test system: SNB-75 CNS
[29] = test system: NCI-H23 lung
[30] = test system: ACHN renal
[31] = test system: HOP-92 NSCLC
[32] = test system: RXF 393 renal
[33] = test system: BT-549 breast
[34] = test system: MDA-MB-231 breast
[35] = test system: NCI-H522 lung
[36] = test system: SF-539 CNS
[37] = test system: HCC-2998 colon
[38] = test system: SK-MEL-28 melanoma
[39] = test system: NCI-H226 lung
[40] = test system: CCRF-CEM leukemia
[41] = test system: MALME-3M melanoma
[42] = test system: K-562 leukemia
[43] = test system: OVCAR-5 ovarian
[44] = test system: DU-145 prostate
[45] = test system: CAKI-1 renal
[46] = test system: SF-268 CNS
[47] = test system: A549 NSCLC
[48] = test system: HS 578T breast
[49] = test system: MCF7 breast
[50] = test system: SK-OV-3 ovarian
[51] = test system: SR leukemia
[52] = test system: SW-620 colon
[53] = test system: SK-MEL-5 melanoma
[54] = test system: SN12C renal
[55] = test system: OVCAR-3 ovarian
[56] = test system: A498 renal
[57] = test system: EKVX NSCLC
[58] = test system: M14 melanoma

With `CCOC(=O)C1=C(C)N=c2s/c(=C\c3ccccc3O)c(=O)n2C1c1ccc(OC)c2ccccc12` (stereo not given) the GI50 [1] was 7.92 µM, the TGI [1] was 43.5 µM and the GI50 [2] was 3.26 µM. The TGI [2] was 12.1 µM, the GI50 [3] was 21.4 µM and the TGI [3] was 75 µM. For the same compound, the GI50 [4] was 8.92 µM, the TGI [4] was 39.5 µM and the GI50 [5] was 15.5 µM. The TGI [5] was > 100 µM, the GI50 [6] was 13.1 µM and the TGI [6] was > 100 µM. It also gave a GI50 [7] of 2.44 µM, a TGI [7] of 5.65 µM and a GI50 [8] of 13.3 µM. The TGI [8] was 30 µM, the GI50 [9] was 38.6 µM and the TGI [9] was > 100 µM. It also gave a GI50 [10] of 2.59 µM, a TGI [10] of 10.3 µM and a GI50 [11] of 2.35 µM. The TGI [11] was 6.58 µM, the GI50 [12] was 40.7 µM and the TGI [12] was > 100 µM. It also gave a GI50 [13] of 11 µM, a TGI [13] of 23.3 µM and a GI50 [14] of 4.65 µM. The TGI [14] was 14.6 µM, the GI50 [15] was 2.01 µM and the TGI [15] was 5.18 µM. For the same compound, the GI50 [16] was 31.8 µM, the TGI [16] was > 100 µM and the GI50 [17] was 5.39 µM. The TGI [17] was 31.2 µM, the GI50 [18] was 30.8 µM and the TGI [18] was > 100 µM. The GI50 [19] was 15.6 µM, the TGI [19] was 33.1 µM and the GI50 [20] was 8.29 µM. For the same compound, the TGI [20] was 25.1 µM, the GI50 [21] was 32.3 µM and the TGI [21] was 87.1 µM. The GI50 [22] was 9.66 µM, the TGI [22] was > 100 µM and the GI50 [23] was 5.35 µM. The TGI [23] was 22 µM, the GI50 [24] was 8.69 µM and the TGI [24] was > 100 µM. The GI50 [25] was 5.28 µM, the TGI [25] was 22.8 µM and the GI50 [26] was 23.3 µM. For the same compound, the TGI [26] was > 100 µM, the GI50 [27] was 13.8 µM and the TGI [27] was 67.9 µM. It also gave a GI50 [28] of 2.01 µM, a TGI [28] of 6.11 µM and a GI50 [29] of 7.72 µM. It also gave a TGI [29] of 30.7 µM, a GI50 [30] of 3.03 µM and a TGI [30] of 8.87 µM. For the same compound, the GI50 [31] was 16.3 µM, the TGI [31] was 35.9 µM and the GI50 [32] was 4.3 µM. For the same compound, the TGI [32] was 17.3 µM, the GI50 [33] was 14.6 µM and the TGI [33] was > 100 µM. It also gave a GI50 [34] of 2.69 µM, a TGI [34] of 6.79 µM and a GI50 [35] of 13.4 µM. It also gave a TGI [35] of 44.3 µM, a GI50 [36] of 1.76 µM and a TGI [36] of 3.67 µM. It also gave a GI50 [37] of 8.43 µM, a TGI [37] of 58.1 µM and a GI50 [38] of 15.5 µM. It also gave a TGI [38] of 76.4 µM, a GI50 [39] of 12.6 µM and a TGI [39] of 32.4 µM. For the same compound, the GI50 [40] was 23.2 µM, the TGI [40] was > 100 µM and the GI50 [41] was 4.14 µM. The TGI [41] was 19 µM, the GI50 [42] was 11.4 µM and the TGI [42] was 67.2 µM. For the same compound, the GI50 [43] was 17.1 µM, the TGI [43] was > 100 µM and the GI50 [44] was 8.3 µM. The TGI [44] was 32 µM, the GI50 [45] was 10 µM and the TGI [45] was 25.9 µM. It also gave a GI50 [46] of 6.23 µM, a TGI [46] of 25.5 µM and a GI50 [47] of 3.88 µM. It also gave a TGI [47] of 16.7 µM, a GI50 [48] of 2.95 µM and a TGI [48] of 13.4 µM. It also gave a GI50 [49] of 4.36 µM, a TGI [49] of 32 µM and a GI50 [50] of 14 µM. The TGI [50] was 27 µM, the GI50 [51] was 4.4 µM and the TGI [51] was 58.8 µM. For the same compound, the GI50 [52] was 16.6 µM, the TGI [52] was > 100 µM and the GI50 [53] was 15.6 µM. The TGI [53] was 64.8 µM, the GI50 [54] was 17.6 µM and the TGI [54] was 63.6 µM. It also gave a GI50 [55] of 3.04 µM and a TGI [55] of 7.83 µM.

In the case of `Cc1cc(=O)[nH]c(N/N=C/c2cc(Br)ccc2O)n1`, the GI50 [1] is reported as 0.35 µM, the TGI [1] is reported as > 100 µM and the GI50 [2] is reported as 0.353 µM. The TGI [2] was > 100 µM, the GI50 [3] was 0.257 µM and the TGI [3] was 0.706 µM. It also gave a GI50 [4] of 0.488 µM, a TGI [4] of 20.5 µM and a GI50 [56] of 4.06 µM. For the same compound, the TGI [56] was 25.4 µM, the GI50 [5] was 0.432 µM and the TGI [5] was 15.5 µM. It also gave a GI50 [6] of 1.77 µM, a TGI [6] of 81.5 µM and a GI50 [7] of 0.634 µM. The TGI [7] was > 100 µM, the GI50 [8] was 0.193 µM and the TGI [8] was 0.568 µM. For the same compound, the GI50 [9] was 0.446 µM, the TGI [9] was 5.68 µM and the GI50 [57] was 1.82 µM. For the same compound, the TGI [57] was 7.67 µM, the GI50 [10] was 2.35 µM and the TGI [10] was > 100 µM. For the same compound, the GI50 [11] was 0.808 µM, the TGI [11] was > 100 µM and the GI50 [13] was 21.5 µM. For the same compound, the TGI [13] was > 100 µM, the GI50 [14] was 1.41 µM and the TGI [14] was > 100 µM. For the same compound, the GI50 [15] was 0.383 µM, the TGI [15] was 33.8 µM and the GI50 [16] was 0.383 µM. For the same compound, the TGI [16] was 9.12 µM, the GI50 [17] was 0.843 µM and the TGI [17] was > 100 µM. The GI50 [18] was 3.45 µM, the TGI [18] was 32.5 µM and the GI50 [19] was 0.435 µM. For the same compound, the TGI [19] was 3.21 µM, the GI50 [20] was 13.3 µM and the TGI [20] was > 100 µM. The GI50 [21] was 49.3 µM, the TGI [21] was > 100 µM and the GI50 [22] was 0.869 µM. The TGI [22] was > 100 µM, the GI50 [23] was 0.369 µM and the TGI [23] was 35.6 µM. For the same compound, the GI50 [24] was 0.606 µM, the TGI [24] was > 100 µM and the GI50 [25] was 0.437 µM. The TGI [25] was 56.7 µM, the GI50 [26] was 0.698 µM and the TGI [26] was > 100 µM. The GI50 [27] was 3.56 µM, the TGI [27] was > 100 µM and the GI50 [28] was 3.33 µM. For the same compound, the TGI [28] was > 100 µM, the GI50 [29] was 0.481 µM and the TGI [29] was > 100 µM. For the same compound, the GI50 [30] was 0.927 µM, the TGI [30] was > 100 µM and the GI50 [31] was 19.3 µM. The TGI [31] was > 100 µM, the GI50 [32] was 3.35 µM and the TGI [32] was > 100 µM. For the same compound, the GI50 [33] was 11 µM, the TGI [33] was > 100 µM and the GI50 [34] was 0.976 µM. For the same compound, the TGI [34] was > 100 µM, the GI50 [35] was 3.37 µM and the TGI [35] was 22 µM. For the same compound, the GI50 [36] was 2.78 µM, the TGI [36] was 39 µM and the GI50 [37] was 1.85 µM. The TGI [37] was > 100 µM, the GI50 [38] was 4.55 µM and the TGI [38] was > 100 µM. The GI50 [39] was 2.1 µM, the TGI [39] was > 100 µM and the GI50 [40] was 0.441 µM. The TGI [40] was > 100 µM, the GI50 [42] was 0.605 µM and the TGI [42] was > 100 µM. For the same compound, the GI50 [43] was 5.07 µM, the TGI [43] was > 100 µM and the GI50 [44] was 1.78 µM. The TGI [44] was > 100 µM, the GI50 [45] was 1.44 µM and the TGI [45] was 4.89 µM. For the same compound, the GI50 [46] was 0.728 µM, the TGI [46] was > 100 µM and the GI50 [47] was 1.84 µM. The TGI [47] was > 100 µM, the GI50 [48] was 7.1 µM and the TGI [48] was > 100 µM. For the same compound, the GI50 [49] was 0.318 µM, the TGI [49] was 16.6 µM and the GI50 [50] was 1.34 µM. The TGI [50] was > 100 µM, the GI50 [51] was 0.896 µM and the TGI [51] was > 100 µM. For the same compound, the GI50 [52] was 0.488 µM, the TGI [52] was > 100 µM and the GI50 [54] was 0.809 µM. The TGI [54] was > 100 µM, the GI50 [55] was 0.34 µM and the TGI [55] was 38.6 µM. For the same compound, the GI50 [58] was 0.53 µM and the TGI [58] was > 100 µM.
